Measurements published in US6124456A, “Pyrazolopyridine compound and pharmaceutical use thereof” (Fujisawa Pharmaceutical Co., Ltd., priority 1996, dated 2000).

System: human A1 receptor
Assay: Adenosine antagonistic activity: radioligand binding with 3H-DPCPX
Settings: at the dose of 1.0×10^-7 M; radioligand 3H-DPCPX 2×10^-9 M
Text: Test: Adenosine Antagonistic Activity
The adenosine antagonistic activity of the test compound was examined by radioligand binding techniques using 8-cyclopentyl-1,3-dipropylxanthine, dipropyl-2,3-^3 H(N)] (^3 H-DPCPX, 2×10^-9 M) for human A^1 receptor.

CN1CCC(n2nc(-c3c(-c4ccccc4)nn4ccccc34)ccc2=O)CC1 [Example 2, 3-[2-(1-methylpiperidin-4-yl)-3-oxo-2,3-dihydropyridazin-6-yl]-2-phenylpyrazolo[1,5-a]pyridine]
inhibition (%): more than 90%
